{
  "source": "ChEMBL document CHEMBL4270597",
  "about": "“Donepezil-butylated hydroxytoluene (BHT) hybrids as Anti-Alzheimer's disease agents with cholinergic, antioxidant, and neuroprotective properties” (Eur J Med Chem, 2018)",
  "key": {"PC-12 [1]": {"test_system": "PC-12", "experiment": "Neuroprotective activity against H2O2-induced apoptosis in rat PC12 cells assessed as necrotic cells at 2.5 uM after 24 hrs by Annexin V-FITC/propidium iodide staining-based flow cytometry (reference value: 4.9%)", "assay_type": "functional"}, "Mus musculus [2]": {"test_system": "Mus musculus", "experiment": "Acute toxicity in mouse assessed as body weight change at 677 to 2000 mg/kg, po measured continuously for first 4 hrs and intermittently for next 24 hrs and occasionally for 14 days", "assay_type": "organism-based", "conditions": "in vivo"}, "Mus musculus [3]": {"test_system": "Mus musculus", "experiment": "Acute toxicity in mouse assessed as abnormal changes in kidney at 2000 mg/kg, po measured continuously for first 4 hrs and intermittently for next 24 hrs and occasionally for 14 days by hematoxylin and eosin staining based microscopic method", "assay_type": "organism-based", "conditions": "in vivo"}, "PC-12 [4]": {"test_system": "PC-12", "experiment": "Neuroprotective activity against H2O2-induced apoptosis in rat PC12 cells assessed as viable cells at 10 uM after 24 hrs by Annexin V-FITC/propidium iodide staining-based flow cytometry (reference value: 68.4%)", "assay_type": "functional", "conditions": "PC-12, 24 h, read-out: Activity"}, "PC-12 [5]": {"test_system": "PC-12", "experiment": "Reversal of H2O2-induced calcium overload in rat PC12 cells assessed as mean fluorescence intensity at 10 uM after 48 hrs by Fluo-3/AM probe based flow cytometry (reference value: 454014)", "assay_type": "functional"}, "[6]": {"experiment": "Antioxidant activity assessed as DPPH radical scavenging activity measured after 30 mins incubation in dark by UV-Visible spectrophotometric analysis", "assay_type": "functional"}, "Acetylcholinesterase [7]": {"biological_target": "Acetylcholinesterase (Homo sapiens, UniProt P22303)", "sequence (P22303 whole entry)": "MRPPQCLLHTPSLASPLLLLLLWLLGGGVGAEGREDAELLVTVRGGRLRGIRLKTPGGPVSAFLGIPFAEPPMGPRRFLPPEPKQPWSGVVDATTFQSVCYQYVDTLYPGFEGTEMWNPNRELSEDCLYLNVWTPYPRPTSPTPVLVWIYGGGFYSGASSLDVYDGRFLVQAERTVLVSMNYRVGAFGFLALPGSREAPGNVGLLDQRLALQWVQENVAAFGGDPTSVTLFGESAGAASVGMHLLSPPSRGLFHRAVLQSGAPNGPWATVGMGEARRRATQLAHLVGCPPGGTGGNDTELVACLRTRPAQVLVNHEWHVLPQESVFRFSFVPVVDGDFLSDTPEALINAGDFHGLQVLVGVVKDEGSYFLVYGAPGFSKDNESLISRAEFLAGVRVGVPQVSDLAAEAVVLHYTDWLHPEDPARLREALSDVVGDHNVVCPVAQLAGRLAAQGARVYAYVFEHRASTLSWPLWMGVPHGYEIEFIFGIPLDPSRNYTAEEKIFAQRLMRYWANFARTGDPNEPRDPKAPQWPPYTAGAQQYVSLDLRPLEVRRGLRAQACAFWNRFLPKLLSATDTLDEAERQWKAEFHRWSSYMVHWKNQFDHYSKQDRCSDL", "experiment": "Mixed-type inhibition of human AChE using acetylthiocholine chloride as substrate incubated for 5 mins followed by substrate addition by Lineweaver-Burk plot analysis"}, "PC-12 [8]": {"test_system": "PC-12", "experiment": "Reversal of H2O2-induced calcium overload in rat PC12 cells assessed as mean fluorescence intensity at 5 uM after 48 hrs by Fluo-3/AM probe based flow cytometry (reference value: 454014)", "assay_type": "functional"}, "Mus musculus [9]": {"test_system": "Mus musculus", "experiment": "Acute toxicity in mouse assessed as abnormal changes in brain at 2000 mg/kg, po measured continuously for first 4 hrs and intermittently for next 24 hrs and occasionally for 14 days by hematoxylin and eosin staining based microscopic method", "assay_type": "organism-based", "conditions": "in vivo"}, "PC-12 [10]": {"test_system": "PC-12", "experiment": "Neuroprotective activity against H2O2-induced oxidative stress in rat PC12 cells assessed as increase in cell viability pretreated for 4 hrs followed by H2O2 challenge measured after 24 hrs by MTT assay", "assay_type": "functional, cell-based"}, "[11]": {"biological_target": "Amyloid-beta precursor protein (Homo sapiens) (UniProt P05067)", "sequence (P05067 whole entry)": "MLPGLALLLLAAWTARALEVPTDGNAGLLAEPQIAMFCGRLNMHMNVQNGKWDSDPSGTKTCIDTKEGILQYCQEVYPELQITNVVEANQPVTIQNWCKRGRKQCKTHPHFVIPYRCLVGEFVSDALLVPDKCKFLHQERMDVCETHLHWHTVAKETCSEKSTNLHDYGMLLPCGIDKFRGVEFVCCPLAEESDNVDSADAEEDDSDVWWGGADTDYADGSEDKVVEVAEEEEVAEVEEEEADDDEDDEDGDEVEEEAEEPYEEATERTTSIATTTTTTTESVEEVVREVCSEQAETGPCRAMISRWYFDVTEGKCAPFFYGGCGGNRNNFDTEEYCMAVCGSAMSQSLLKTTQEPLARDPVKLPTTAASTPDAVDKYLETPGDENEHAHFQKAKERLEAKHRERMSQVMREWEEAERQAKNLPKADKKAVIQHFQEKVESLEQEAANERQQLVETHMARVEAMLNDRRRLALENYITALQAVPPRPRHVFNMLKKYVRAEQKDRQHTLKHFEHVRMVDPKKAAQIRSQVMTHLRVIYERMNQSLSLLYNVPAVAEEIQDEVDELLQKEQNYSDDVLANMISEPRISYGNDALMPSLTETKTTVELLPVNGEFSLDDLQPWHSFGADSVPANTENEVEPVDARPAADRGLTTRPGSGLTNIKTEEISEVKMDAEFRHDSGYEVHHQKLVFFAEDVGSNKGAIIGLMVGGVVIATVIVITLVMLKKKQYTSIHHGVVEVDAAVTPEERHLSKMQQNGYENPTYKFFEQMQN", "experiment": "Inhibition of AChE-induced amyloid beta 40 (unknown origin) aggregation at 100 uM by thioflavin-T fluorescence assay relative to control"}, "Mus musculus [12]": {"test_system": "Mus musculus", "experiment": "Acute toxicity in mouse assessed as abnormal changes in heart at 2000 mg/kg, po measured continuously for first 4 hrs and intermittently for next 24 hrs and occasionally for 14 days by hematoxylin and eosin staining based microscopic method", "assay_type": "organism-based", "conditions": "in vivo"}, "PC-12 [13]": {"test_system": "PC-12", "experiment": "Reversal of H2O2-induced calcium overload in rat PC12 cells after 48 hrs by Fluo-3/AM probe based flow cytometry", "assay_type": "functional, cell-based"}, "Mus musculus [14]": {"test_system": "Mus musculus", "experiment": "Toxicity in ICR mouse assessed as change in body weight at 5 to 10 mg/kg, po administered for 10 consecutive days", "assay_type": "organism-based", "conditions": "in vivo"}, "[15]": {"biological_target": "T1, Amine oxidase [flavin-containing] A (Homo sapiens, UniProt P21397)", "T1 sequence (P21397 whole entry)": "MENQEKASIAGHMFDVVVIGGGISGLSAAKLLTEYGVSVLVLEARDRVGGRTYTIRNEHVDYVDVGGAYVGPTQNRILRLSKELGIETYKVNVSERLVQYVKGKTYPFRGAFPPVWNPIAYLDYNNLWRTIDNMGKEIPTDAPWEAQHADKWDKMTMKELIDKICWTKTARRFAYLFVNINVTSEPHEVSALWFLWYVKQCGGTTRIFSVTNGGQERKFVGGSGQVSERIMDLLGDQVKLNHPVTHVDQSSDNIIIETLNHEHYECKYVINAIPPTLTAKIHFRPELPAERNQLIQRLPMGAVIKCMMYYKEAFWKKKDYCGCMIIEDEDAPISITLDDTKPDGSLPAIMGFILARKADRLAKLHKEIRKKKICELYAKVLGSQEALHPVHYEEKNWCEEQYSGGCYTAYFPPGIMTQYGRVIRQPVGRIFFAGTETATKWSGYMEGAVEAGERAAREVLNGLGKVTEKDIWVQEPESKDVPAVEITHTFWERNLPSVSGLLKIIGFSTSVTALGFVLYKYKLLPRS", "experiment": "Inhibition of human MAO-A using p-tyramine as substrate incubated for 15 mins followed by substrate addition measured for 20 mins by fluorescence assay"}, "Homo sapiens": {"species": "Homo sapiens", "experiment": "Selectivity index, ratio of IC50 for human serum BuChE to IC50 for human erythrocyte AChE"}, "Mus musculus [16]": {"test_system": "Mus musculus", "experiment": "Acute toxicity in mouse assessed as abnormal changes in water or food consumption at 677 to 2000 mg/kg, po measured continuously for first 4 hrs and intermittently for next 24 hrs and occasionally for 14 days", "assay_type": "organism-based", "conditions": "in vivo"}, "[17]": {"biological_target": "Cholinesterase (Equus caballus) (UniProt P81908)", "sequence (P81908 whole entry)": "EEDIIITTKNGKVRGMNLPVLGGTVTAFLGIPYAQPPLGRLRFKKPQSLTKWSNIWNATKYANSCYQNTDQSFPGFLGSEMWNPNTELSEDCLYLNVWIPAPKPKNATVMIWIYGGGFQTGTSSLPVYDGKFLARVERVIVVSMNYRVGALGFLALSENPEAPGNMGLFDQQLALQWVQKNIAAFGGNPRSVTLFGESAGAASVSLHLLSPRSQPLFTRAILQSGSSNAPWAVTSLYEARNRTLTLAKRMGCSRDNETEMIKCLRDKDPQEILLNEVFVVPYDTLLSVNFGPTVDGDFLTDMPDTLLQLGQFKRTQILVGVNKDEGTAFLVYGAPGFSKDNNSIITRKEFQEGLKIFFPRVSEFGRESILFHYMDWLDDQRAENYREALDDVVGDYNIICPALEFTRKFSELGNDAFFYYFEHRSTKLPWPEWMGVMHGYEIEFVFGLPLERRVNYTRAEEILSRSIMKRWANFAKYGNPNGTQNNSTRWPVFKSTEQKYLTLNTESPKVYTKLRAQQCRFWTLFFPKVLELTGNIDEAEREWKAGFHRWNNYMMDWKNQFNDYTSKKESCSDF", "experiment": "Inhibition of equine serum BuChE at 100 uM using butyrylthiocholine iodide as substrate incubated for 5 mins followed by substrate addition measured after 180 secs by Ellman's method relative to control"}, "PC-12 [18]": {"test_system": "PC-12", "experiment": "Neuroprotective activity against H2O2-induced apoptosis in rat PC12 cells assessed as early apoptotic cells at 5 uM after 24 hrs by Annexin V-FITC/propidium iodide staining-based flow cytometry (reference value: 1.4%)", "assay_type": "functional"}, "PC-12 [19]": {"test_system": "PC-12", "experiment": "Neuroprotective activity against H2O2-induced apoptosis in rat PC12 cells assessed as early apoptotic cells at 2.5 uM after 24 hrs by Annexin V-FITC/propidium iodide staining-based flow cytometry (reference value: 1.4%)", "assay_type": "functional"}, "Acetylcholinesterase [20]": {"biological_target": "Acetylcholinesterase (Electrophorus electricus, UniProt O42275)", "sequence (O42275 whole entry)": "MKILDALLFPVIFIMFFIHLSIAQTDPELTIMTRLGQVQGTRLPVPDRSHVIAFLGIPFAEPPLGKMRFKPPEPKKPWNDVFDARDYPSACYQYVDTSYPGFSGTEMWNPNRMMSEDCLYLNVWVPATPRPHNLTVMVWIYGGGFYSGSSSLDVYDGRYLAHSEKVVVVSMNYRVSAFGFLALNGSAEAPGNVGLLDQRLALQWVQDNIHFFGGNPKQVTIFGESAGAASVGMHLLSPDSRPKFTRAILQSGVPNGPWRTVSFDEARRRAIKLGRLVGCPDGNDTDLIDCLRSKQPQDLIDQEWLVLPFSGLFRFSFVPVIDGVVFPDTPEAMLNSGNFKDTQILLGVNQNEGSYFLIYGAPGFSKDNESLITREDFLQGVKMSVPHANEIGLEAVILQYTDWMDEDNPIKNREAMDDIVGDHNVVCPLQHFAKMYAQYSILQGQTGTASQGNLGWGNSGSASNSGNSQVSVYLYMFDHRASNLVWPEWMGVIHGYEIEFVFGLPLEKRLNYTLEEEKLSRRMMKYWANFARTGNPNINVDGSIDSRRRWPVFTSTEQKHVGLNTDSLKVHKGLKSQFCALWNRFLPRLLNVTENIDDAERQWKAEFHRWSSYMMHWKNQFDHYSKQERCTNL", "experiment": "Inhibition of electric eel AChE using acetylthiocholine chloride as substrate incubated for 5 mins followed by substrate addition measured after 180 secs by Ellman's method"}, "PC-12 [21]": {"test_system": "PC-12", "experiment": "Neuroprotective activity against H2O2-induced apoptosis in rat PC12 cells assessed as viable cells at 5 uM after 24 hrs by Annexin V-FITC/propidium iodide staining-based flow cytometry (reference value: 68.4%)", "assay_type": "functional", "conditions": "PC-12, 24 h, read-out: Activity"}, "PC-12 [22]": {"test_system": "PC-12", "experiment": "Neuroprotective activity against H2O2-induced apoptosis in rat PC12 cells assessed as late apoptotic cells at 10 uM after 24 hrs by Annexin V-FITC/propidium iodide staining-based flow cytometry (reference value: 25.3%)", "assay_type": "functional"}, "[23]": {"experiment": "Antioxidant activity assessed as ABTS radical cation scavenging activity by measuring trolox equivalent antioxidant capacity measured at 6 mins", "assay_type": "functional"}, "[24]": {"experiment": "Effective permeability of the compound at […] after 16 hrs by PAMPA-BBB assay", "assay_type": "ADME", "conditions": "read-out: Peff"}, "BV-2": {"test_system": "BV-2", "experiment": "Inhibition of LPS-induced intracellular ROS production in mouse BV2 cells assessed as mean fluorescence intensity at 5 uM incubated with LPS for 18 hrs followed by compound addition measured after 36 hrs by DCFH-DA probe based flow cytometry (reference value: 493530)", "assay_type": "functional"}, "PC-12 [25]": {"test_system": "PC-12", "experiment": "Neuroprotective activity against H2O2-induced apoptosis in rat PC12 cells assessed as necrotic cells at 5 uM after 24 hrs by Annexin V-FITC/propidium iodide staining-based flow cytometry (reference value: 4.9%)", "assay_type": "functional"}, "PC-12 [26]": {"test_system": "PC-12", "experiment": "Cytotoxicity against rat PC12 cells assessed as decrease in cell viability at 20 uM after 24 hrs by MTT assay", "assay_type": "cell-based", "conditions": "pc-12, 24 h"}},
  "data": [
    {"smiles": "CC(C)(C)c1cc(/C=C/C(=O)NCCC2CCN(Cc3ccccc3F)CC2)cc(C(C)(C)C)c1O", "values": [
      {"measurement": "Activity", "setting": "PC-12 [1]", "value": 3.5, "unit": "%"},
      {"measurement": "Activity", "setting": "Mus musculus [2]", "value": "Non-Toxic"},
      {"measurement": "Activity", "setting": "Mus musculus [3]", "value": "Non-Toxic"},
      {"measurement": "viability at 10 µM", "setting": "PC-12 [4]", "value": 92.4, "unit": "%"},
      {"measurement": "Flu intensity", "setting": "PC-12 [5]", "value": 157903},
      {"measurement": "IC50", "setting": "[6]", "value": 55.9, "unit": "µM"},
      {"measurement": "Ki", "setting": "Acetylcholinesterase [7]", "value": 1.4, "unit": "µM"},
      {"measurement": "Flu intensity", "setting": "PC-12 [8]", "value": 251576},
      {"measurement": "Activity", "setting": "Mus musculus [9]", "value": "Non-Toxic"},
      {"measurement": "Activity", "setting": "PC-12 [10]", "value": "Dose-dependent effect"},
      {"measurement": "inhibition", "setting": "[11]", "value": 40.1, "unit": "%"},
      {"measurement": "Activity", "setting": "Mus musculus [12]", "value": "Non-Toxic"},
      {"measurement": "Activity", "setting": "PC-12 [13]", "value": "Dose-dependent effect"},
      {"measurement": "Activity", "setting": "Mus musculus [14]", "value": "Non-Toxic"},
      {"measurement": "IC50", "setting": "[15]", "value": 60.2, "unit": "µM"},
      {"measurement": "Ratio IC50", "setting": "Homo sapiens", "value": "> 133"},
      {"measurement": "Activity", "setting": "Mus musculus [16]", "value": "Non-Toxic"},
      {"measurement": "inhibition", "setting": "[17]", "value": 48, "unit": "%"},
      {"measurement": "Activity", "setting": "PC-12 [18]", "value": 0.3, "unit": "%"},
      {"measurement": "Activity", "setting": "PC-12 [19]", "value": 0.2, "unit": "%"},
      {"measurement": "IC50", "setting": "Acetylcholinesterase [20]", "value": 0.075, "unit": "µM"},
      {"measurement": "viability at 5 µM", "setting": "PC-12 [21]", "value": 88.3, "unit": "%"},
      {"measurement": "Activity", "setting": "PC-12 [22]", "value": 5.7, "unit": "%"},
      {"measurement": "Activity (mmolequiv/mmol)", "setting": "[23]", "value": 0.82},
      {"measurement": "Papp at 16 h", "setting": "[24]", "value": 5.5, "unit": "×10⁻⁶ cm/s"},
      {"measurement": "Flu intensity", "setting": "BV-2", "value": 479700},
      {"measurement": "Activity", "setting": "PC-12 [25]", "value": 2.5, "unit": "%"},
      {"measurement": "Activity", "setting": "PC-12 [26]", "value": "Non-Toxic"}
    ]}
  ]
}
